Conditions: Liquid; for viscosity: Concentric cylinders viscometry

CCn1cc[n+](C)c1.COP(=O)([O-])OC [1-ethyl-3-methylimidazolium dimethylphosphate]
Conditions | mass density [kg/m3]
351.7 K, 160000 kPa, Bellows volumetry | 1243.2
351.7 K, 170000 kPa, Bellows volumetry | 1246.2
351.7 K, 180000 kPa, Bellows volumetry | 1249.1
351.7 K, 190000 kPa, Bellows volumetry | 1252
351.7 K, 200000 kPa, Bellows volumetry | 1255
353.15 K, 101.33 kPa, Vibrating tube method | 1181.1
363.15 K, 101.33 kPa, Vibrating tube method | 1174.5
372.4 K, 10000 kPa, Bellows volumetry | 1174.1
372.4 K, 20000 kPa, Bellows volumetry | 1179
372.4 K, 30000 kPa, Bellows volumetry | 1182.8
372.4 K, 40000 kPa, Bellows volumetry | 1188.3
372.4 K, 50000 kPa, Bellows volumetry | 1192.6
372.4 K, 60000 kPa, Bellows volumetry | 1196.9
372.4 K, 70000 kPa, Bellows volumetry | 1200.9
372.4 K, 80000 kPa, Bellows volumetry | 1204.9
372.4 K, 90000 kPa, Bellows volumetry | 1208.7
372.4 K, 100000 kPa, Bellows volumetry | 1212.4
372.4 K, 110000 kPa, Bellows volumetry | 1216
372.4 K, 120000 kPa, Bellows volumetry | 1219.5
372.4 K, 130000 kPa, Bellows volumetry | 1223
372.4 K, 140000 kPa, Bellows volumetry | 1226.3
372.4 K, 150000 kPa, Bellows volumetry | 1229.6
372.4 K, 160000 kPa, Bellows volumetry | 1232.8
372.4 K, 170000 kPa, Bellows volumetry | 1235.9
372.4 K, 180000 kPa, Bellows volumetry | 1238.9
372.4 K, 190000 kPa, Bellows volumetry | 1242
372.4 K, 200000 kPa, Bellows volumetry | 1244.9
373.15 K, 101.33 kPa, Vibrating tube method | 1168.1
391.9 K, 10000 kPa, Bellows volumetry | 1161.7
391.9 K, 20000 kPa, Bellows volumetry | 1166.8
391.9 K, 30000 kPa, Bellows volumetry | 1171.8
391.9 K, 40000 kPa, Bellows volumetry | 1176.6
391.9 K, 50000 kPa, Bellows volumetry | 1181.2
391.9 K, 60000 kPa, Bellows volumetry | 1185.6
391.9 K, 70000 kPa, Bellows volumetry | 1189.9
391.9 K, 80000 kPa, Bellows volumetry | 1194
391.9 K, 90000 kPa, Bellows volumetry | 1198
391.9 K, 100000 kPa, Bellows volumetry | 1201.8
391.9 K, 110000 kPa, Bellows volumetry | 1205.6
391.9 K, 120000 kPa, Bellows volumetry | 1209.1
391.9 K, 130000 kPa, Bellows volumetry | 1212.7
391.9 K, 140000 kPa, Bellows volumetry | 1216.1
391.9 K, 150000 kPa, Bellows volumetry | 1219.5
391.9 K, 160000 kPa, Bellows volumetry | 1222.8
391.9 K, 170000 kPa, Bellows volumetry | 1226
391.9 K, 180000 kPa, Bellows volumetry | 1229.1
391.9 K, 190000 kPa, Bellows volumetry | 1232.2
391.9 K, 200000 kPa, Bellows volumetry | 1235.3

101.33 kPa
Conditions | viscosity [mPa·s]
353.15 K | 22.85
363.15 K | 17.29
373.15 K | 13.47

Source: the NIST ThermoML archive (doi:10.1016/j.jct.2016.09.013)
